Assay [1] has as its system blood cancer cell lines (e.g. HL-60, Jurkat, Raji, Ramos, Daudi, MOLT-4). The assay can be described thus: Cell based assay, cell viability (CellTiter-Glo), blood cancer cell lines. Conditions: Homo sapiens. The method in brief: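 Each commercial line was plated and allowed 24 h to settle at constant temperature. Compound exposure ran 72 h at final concentrations spanning 0 to 2 μM. Cell viability was then determined by luminescent ATP detection.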
For orientation: Cellular ATP, detected with luciferase, serves as a proxy for viable cell number.

Another assay has as its system brain cancer cell lines. Description: Cell based assay, cell viability (CellTiter-Glo), brain cancer cell lines. Conditions: Homo sapiens.
Assay [2] deals with cervical carcinoma cell lines. Description: Cell based assay, cell viability (CellTiter-Glo), cervical carcinoma cell lines. Conditions: Homo sapiens; HeLa cells.
For assay [3], the system named is RT4: human urinary bladder transitional cell papilloma. Description: Cell based assay, cytotoxicity in RT4 papilloma cells (selectivity). Conditions: Homo sapiens, RT-4; RT4 cells.
Where [4] appears, read: MV4-11, blood cancer cell line MV-4-11, 72 hours, read-out: IC50, MV-4-11.
Setting [5] is: blood cancer cell line Daudi, 72 hours, read-out: IC50, Daudi.
Where [6] appears, read: blood cancer cell line HL-60, 72 hours, read-out: IC50, HL-60.
Setting [7] is: blood cancer cell line Jurkat, 72 hours, read-out: IC50, Jurkat.
[8] abbreviates: blood cancer cell line MOLT-4, 72 hours, read-out: IC50, MOLT-4.
The mark [9] stands for this setting: blood cancer cell line Raji, 72 hours, read-out: IC50, Raji.
Where [10] appears, read: blood cancer cell line Ramos (RA 1), 72 hours, read-out: IC50, Ramos (RA 1).
[11] abbreviates: blood cancer cell line U-937, 72 hours, read-out: IC50, U-937.
Setting [12] is: U138-MG, U-138 MG cell line, read-out: IC50, Brain cancer cell line U-138 MG.
Where [13] appears, read: T98G cell line, read-out: IC50, Brain cancer cell line T98G.
[14] abbreviates: U-251 MG cell line, read-out: IC50, Brain cancer cell line U-251 MG.

Structures are written as SMILES. Like-named read-outs stand apart in the source and are kept apart here. Bounds are passed on as bounds.

As a reminder, the IC50 is the point on the concentration scale where inhibition reaches its midpoint. For `CC(=O)c1c([S+]([O-])Cc2cccc(C#N)c2)[nH]c2c(Br)ccc(Cl)c2c1=O` (stereo not drawn) [Compound 28, 3-(((3-acetyl-8-bromo-5-chloro-4-oxo-1,4-dihydroquinolin-2-yl)sulfinyl)methyl)benzonitrile], the IC50 amounted to 1070 nM in assay [1] (setting [4]); 1940 nM in assay [1] (setting [5]); 1060 nM in assay [1] (setting [6]); 880 nM in assay [1] (setting [7]); 1180 nM in assay [1] (setting [8]); 870 nM in assay [1] (setting [9]). In addition, the IC50 in assay [1] (setting [10]) is 1490 nM; in assay [1] (setting [11]), 870 nM; with brain cancer cell lines (setting [12]) it was 1260 nM; with brain cancer cell lines (setting [13]) it was above 10000 nM; with brain cancer cell lines (setting [14]) it was 880 nM; in assay [2], above 10000 nM. Moreover, the IC50 in assay [3] is above 10000 nM.
Turning to `CC(=O)c1c([S+]([O-])Cc2ccc(NS(C)(=O)=O)cc2)[nH]c2c(Br)ccc(Cl)c2c1=O` (stereo not drawn) [Compound 103, N-(4-(((3-acetyl-8-bromo-5-chloro-4-oxo-1,4-dihydroquinolin-2-yl)sulfinyl)methyl)phenyl)methane-sulfonamide], the IC50 in assay [1] (setting [4]), in assay [1] (setting [5]), in assay [1] (setting [6]), in assay [1] (setting [7]), in assay [1] (setting [8]) and in assay [1] (setting [9]) was above 2000 nM throughout. Further, the IC50 in assay [1] (setting [10]) was above 2000 nM; in assay [1] (setting [11]), above 2000 nM; with brain cancer cell lines (setting [12]), above 2000 nM; in the assay on brain cancer cell lines (setting [13]) it was above 10000 nM; in the assay with brain cancer cell lines (setting [14]) it was above 2000 nM; in assay [2], above 2000 nM. In assay [3], this molecule gave an IC50 above 10000 nM.
Consider `COCSc1[nH]c2c(Br)ccc(Cl)c2c(=O)c1C(C)=O` [Compound 61, 3-acetyl-8-bromo-5-chloro-2-((methoxymethyl)thio)quinolin-4(1H)-one], for which the half-maximal inhibitory concentration (IC50) in assay [1] (setting [4]), in assay [1] (setting [5]), in assay [1] (setting [6]), in assay [1] (setting [7]), in assay [1] (setting [8]) and in assay [1] (setting [9]) was above 2000 nM in each case. In addition, the IC50 is above 2000 nM in assay [1] (setting [10]); above 2000 nM in assay [1] (setting [11]); above 10000 nM in the assay with brain cancer cell lines (setting [12]); above 10000 nM with brain cancer cell lines (setting [13]); above 2000 nM in the assay with brain cancer cell lines (setting [14]); above 10000 nM in assay [2]. The molecule also returned a concentration for half-maximal inhibition (IC50) in assay [3] above 10000 nM.
For `CC(=O)c1c([S+]([O-])Cc2ccc(Cl)cc2)[nH]c2c(Br)ccc(Cl)c2c1=O` (stereo not drawn) [Compound 11, 3-acetyl-8-bromo-5-chloro-2-((4-chlorobenzyl)sulfinyl)quinolin-4(1H)-one], the IC50 in assay [1] (setting [4]), in assay [1] (setting [5]), in assay [1] (setting [6]), in assay [1] (setting [7]), in assay [1] (setting [8]) and in assay [1] (setting [9]) was above 2000 nM each time. The IC50 was above 2000 nM in assay [1] (setting [10]); above 2000 nM in assay [1] (setting [11]); above 2000 nM in the assay on brain cancer cell lines (setting [12]); above 10000 nM with brain cancer cell lines (setting [13]); above 2000 nM with brain cancer cell lines (setting [14]); above 10000 nM in assay [2]. Further, the IC50 in assay [3] is above 10000 nM.
Take `CC(=O)c1c(S)[nH]c2c(Br)ccc(Cl)c2c1=O` [Compound 62, 3-acetyl-8-bromo-5-chloro-2-mercaptoquinolin-4(1H)-one]: the IC50 in assay [1] (setting [4]), in assay [1] (setting [5]), in assay [1] (setting [6]), in assay [1] (setting [7]), in assay [1] (setting [8]) and in assay [1] (setting [9]) was above 2000 nM each time. For the same molecule, the IC50 in assay [1] (setting [10]) is above 2000 nM; in assay [1] (setting [11]), above 2000 nM; in the assay on brain cancer cell lines (setting [12]), above 10000 nM; in the assay with brain cancer cell lines (setting [13]) it was above 10000 nM; in the assay on brain cancer cell lines (setting [14]), above 2000 nM; in assay [2], above 10000 nM. Further, the 50% inhibitory concentration (IC50) in assay [3] was above 10000 nM.
As for `COc1cccc2[nH]c([S+]([O-])Cc3ccc(S(F)(F)(F)(F)F)cc3)c(C(C)=O)c(=O)c12` (stereo not drawn) [Compound 93, 3-acetyl-5-methoxy-2-((4-(pentafluoro--sulfanyl)benzyl)sulfinyl)quinolin-4(1H)-one], the IC50 in assay [1] (setting [4]), in assay [1] (setting [5]), in assay [1] (setting [6]), in assay [1] (setting [7]), in assay [1] (setting [8]) and in assay [1] (setting [9]) was above 2000 nM each time. The IC50 was above 2000 nM in assay [1] (setting [10]); above 2000 nM in assay [1] (setting [11]); above 10000 nM in the assay with brain cancer cell lines (setting [12]); above 10000 nM in the assay on brain cancer cell lines (setting [13]); above 2000 nM in the assay with brain cancer cell lines (setting [14]); above 10000 nM in assay [2]. Further, in assay [3], the concentration for half-maximal inhibition (IC50) was above 10000 nM.
With `CC(=O)c1c(S(C)(=O)=O)n(C(=O)c2ccc(Br)cc2)c2c(Br)ccc(Cl)c2c1=O` [Compound 21, 3-acetyl-8-bromo-1-(4-bromobenzoyl)-5-chloro-2-(methylsulfonyl)quinolin-4(1H)-one], the IC50 in assay [1] (setting [4]), in assay [1] (setting [5]), in assay [1] (setting [6]), in assay [1] (setting [7]), in assay [1] (setting [8]) and in assay [1] (setting [9]) was above 2000 nM throughout. The IC50 in assay [1] (setting [10]) was above 2000 nM; in assay [1] (setting [11]), above 2000 nM; in the assay on brain cancer cell lines (setting [12]), above 10000 nM; in the assay on brain cancer cell lines (setting [13]) it was above 10000 nM; in the assay with brain cancer cell lines (setting [14]) it was above 2000 nM; in assay [2], above 10000 nM. For the same molecule, the 50% inhibitory concentration (IC50) in assay [3] was above 10000 nM.
As to `CC(=O)c1c(SCC#N)[nH]c2c(Br)ccc(Cl)c2c1=O` [Compound 66, 2-((3-acetyl-8-bromo-5-chloro-4-oxo-1,4-dihydroquinolin-2-yl)thio)acetonitrile], the IC50 in assay [1] (setting [4]), in assay [1] (setting [5]), in assay [1] (setting [6]), in assay [1] (setting [7]), in assay [1] (setting [8]) and in assay [1] (setting [9]) was above 2000 nM in each case. For the same molecule, the IC50 in assay [1] (setting [10]) was above 2000 nM; in assay [1] (setting [11]), above 2000 nM; with brain cancer cell lines (setting [12]), above 10000 nM; in the assay with brain cancer cell lines (setting [13]), above 10000 nM; with brain cancer cell lines (setting [14]) it was above 2000 nM; in assay [2] it was above 10000 nM. In addition, in assay [3], the IC50 was above 10000 nM.
For the molecule `CC(=O)c1c(Sc2ccc(Br)cc2)[nH]c2c(Br)ccc(Cl)c2c1=O` [Compound 16, 3-acetyl-8-bromo-2-((4-bromophenyl)thio)-5-chloroquinolin-4(1H)-one], the half-maximal inhibitory concentration (IC50) in assay [1] (setting [4]), in assay [1] (setting [5]), in assay [1] (setting [6]), in assay [1] (setting [7]), in assay [1] (setting [8]) and in assay [1] (setting [9]) was above 2000 nM in each case. The IC50 in assay [1] (setting [10]) is above 2000 nM; in assay [1] (setting [11]), above 2000 nM; with brain cancer cell lines (setting [12]), above 10000 nM; in the assay with brain cancer cell lines (setting [13]), above 10000 nM; in the assay on brain cancer cell lines (setting [14]), above 2000 nM; in assay [2], above 10000 nM. For the same molecule, in assay [3], the IC50 is above 10000 nM.

The values are drawn from patent US11464770B2, “Anticancer pharmaceutical composition” (NATIONAL CANCER CENTER, priority 2016, dated 2022).
